The record followed here is the supplement of paper PMC7695840.

The test system of assay [1] is Staphylococcus aureus MW2 (mecA+). Put plainly: IC50 (growth, competition assay). To be noted: cefoxitin: subinhibitory. A digest of the protocol:
(§1)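 Pre-induced, 1:1-mixed fluorescent S. aureus MW2 mecA+ and ΔmecA strains were grown 20 h at 37 °C, 90% humidity, unshaken, in LB with a daily-set subinhibitory cefoxitin dose, in 1536-well plates. Compounds were given on five- or nine-point 2-fold gradients, in two dye-swapped replicates. DsRed (540/590) and GFP (485/520) were scaled per plate between single-strain control medians, with No Treatment then set to 0.5. Per-strain IC50 was the dose halving the No Treatment signal, or the maximal signal.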

Assay [2] has as its system Staphylococcus aureus MW2 delta-mecA (mecA-). In words: IC50 (growth, competition assay). To be noted: cefoxitin: subinhibitory. The method in brief:
as §1

Several values for one entry are separate records, joined by “and”; a condition that tells them apart may be missing. Identical values can stand only once.

As usually defined, the IC50 is the concentration that inhibits the measured activity by half. `CC(C)CCC[C@@H](C)[C@H]1CC[C@H]2[C@@H]3CC[C@H]4CC(=O)CC[C@]4(C)[C@H]3CC[C@]12C` [CHOLESTAN-3-ONE]: the IC50 in assay [1] (fluorescent label: DsRed) is above 150 µM; in assay [1] (fluorescent label: GFP), above 150 µM; in assay [2] (fluorescent label: DsRed) it was 17.3 µM; in assay [2] (fluorescent label: GFP), 31.9 µM.

With `OCCN1CCN(CCCN2c3ccccc3Sc3ccc(Cl)cc32)CC1` [TRILAFON], the IC50 in assay [1] (fluorescent label: DsRed) turned out to be 57 µM; in assay [1] (fluorescent label: GFP), 52.6 µM; in assay [2] (fluorescent label: DsRed), 18.4 µM; in assay [2] (fluorescent label: GFP) it was 15.8 µM.

In the case of `O=C1[C@H](CC[C@H](O)c2ccc(F)cc2)[C@@H](c2ccc(O)cc2)N1c1ccc(F)cc1` [Ezetimibe (Zetia)], the IC50 in assay [1] (fluorescent label: DsRed) worked out at 80.3 µM; in assay [1] (fluorescent label: GFP), 108 µM; in assay [2] (fluorescent label: DsRed), 24.9 µM; in assay [2] (fluorescent label: GFP) it was 14.9 µM.

Consider `CN1C[C@H](CNC(=O)OCc2ccccc2)C[C@@H]2c3cccc4c3c(cn4C)C[C@H]21` [METERGOLINE], for which the IC50 in assay [1] (fluorescent label: DsRed) was 50.7 µM; in assay [1] (fluorescent label: GFP), 53.6 µM; in assay [2] (fluorescent label: DsRed) it was 16.8 µM; in assay [2] (fluorescent label: GFP) it was 15.9 µM.

`CN(C)c1ccc(C(=C2C=CC(=[N+](C)C)C=C2)c2ccc(N(C)C)cc2)cc1` [Crystal violet]: the IC50 is 0.691 µM in assay [1] (fluorescent label: DsRed), 0.758 µM in assay [1] (fluorescent label: GFP), below 0.498 µM in assay [2] (fluorescent label: DsRed) and below 0.498 µM in assay [2] (fluorescent label: GFP).

For the molecule `O=C(O[C@@H]1Cc2c(O)cc(O)cc2O[C@@H]1c1cc(O)c(O)c(O)c1)c1cc(O)c(O)c(O)c1` [(-)-Epigallocatechin gallate], the IC50 is 27.4 µM and 17.3 µM in assay [1] (fluorescent label: DsRed); 29.7 µM and 46.5 µM in assay [1] (fluorescent label: GFP); 4.65 µM and < 9.85 µM in assay [2] (fluorescent label: DsRed); 3.45 µM and < 9.85 µM in assay [2] (fluorescent label: GFP).

For `CCOC(=O)C1=C(C)NC(C)=C(C(=O)OC)C1c1cccc(Cl)c1Cl` (centres undefined) [Felodipine (Plendil)], the IC50 turned out to be 22.6 µM in assay [1] (fluorescent label: DsRed), 31.8 µM in assay [1] (fluorescent label: GFP), 7.13 µM in assay [2] (fluorescent label: DsRed) and 6.89 µM in assay [2] (fluorescent label: GFP).

As for `CC(C)(C)c1ccc(C(=O)CCCN2CCC(OC(c3ccccc3)c3ccccc3)CC2)cc1` [Ebastine], the IC50 in assay [1] (fluorescent label: DsRed) is 16.4 µM; in assay [1] (fluorescent label: GFP), 15.3 µM; in assay [2] (fluorescent label: DsRed), below 9.85 µM; in assay [2] (fluorescent label: GFP), below 9.85 µM.

Turning to `CC1=CC(=O)c2c(O)cccc2C1=O` [PLUMBAGIN], the IC50 is 18 µM in assay [1] (fluorescent label: DsRed), 38.3 µM in assay [1] (fluorescent label: GFP), below 9.85 µM in assay [2] (fluorescent label: DsRed) and below 9.85 µM in assay [2] (fluorescent label: GFP).

Turning to `CCCCCCCCCCCCCCC[C@H](O)[C@H](N)CO` (racemic) [DL-erythro-Dihydrosphingosine], the IC50 is 15.1 µM in assay [1] (fluorescent label: DsRed), 10.4 µM in assay [1] (fluorescent label: GFP), below 9.85 µM in assay [2] (fluorescent label: DsRed) and below 9.85 µM in assay [2] (fluorescent label: GFP).

Regarding `CC[C@H](C)[C@H](N)C1=N[C@H](C(=O)N[C@@H](CC(C)C)C(=O)N[C@H](CCC(=O)[O-])C(=O)N[C@H](C(=O)N[C@H]2CCCCNC(=O)[C@H](CC(N)=O)NC(=O)[C@@H](CC(=O)[O-])NC(=O)[C@H](Cc3cnc[nH]3)NC(=O)[C@@H](Cc3ccccc3)NC(=O)[C@H]([C@@H](C)CC)NC(=O)[C@@H](CCCN)NC2=O)[C@@H](C)CC)CS1.[Zn+2]` [Bacitracin zinc], the IC50 was found to be 35.2 µM in assay [1] (fluorescent label: DsRed), 49.1 µM in assay [1] (fluorescent label: GFP), 4.32 µM in assay [2] (fluorescent label: DsRed) and 4.06 µM in assay [2] (fluorescent label: GFP).
